In PubChem BioAssay (NCI):
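Protocol summary: plate cells (96-well), add compound at 5 concentrations, incubate 48 h, interpolate endpoints linearly. TGI denotes the concentration required for complete inhibition of growth.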

How the values were obtained:
Assay in all cases: NCI tumour cell line growth inhibition, 48 h
[1] = test system: SF-268 CNS
[2] = test system: SW-620 colon
[3] = test system: UACC-62 melanoma
[4] = test system: DLD-1 colon
[5] = test system: COLO 205 colon
[6] = test system: IGROV1 ovarian
[7] = test system: M19-MEL melanoma
[8] = test system: ACHN renal
[9] = test system: HT29 colon
[10] = test system: CCRF-CEM leukemia
[11] = test system: MOLT-4 leukemia
[12] = test system: RXF 393 renal
[13] = test system: SK-MEL-28 melanoma
[14] = test system: U251 CNS
[15] = test system: HL-60(TB) leukemia
[16] = test system: HCT-116 colon
[17] = test system: SK-MEL-2 melanoma
[18] = test system: SNB-19 CNS
[19] = test system: KM12 colon
[20] = test system: RXF-631 renal
[21] = test system: HOP-18 NSCLC
[22] = test system: KM20L2 colon
[23] = test system: OVCAR-5 ovarian
[24] = test system: A498 renal
[25] = test system: LOX IMVI melanoma
[26] = test system: SNB-75 CNS
[27] = test system: SK-OV-3 ovarian
[28] = test system: HOP-92 NSCLC
[29] = test system: SNB-78 CNS
[30] = test system: EKVX NSCLC
[31] = test system: M14 melanoma
[32] = test system: XF 498 CNS
[33] = test system: DMS 114 small cell lung
[34] = test system: OVCAR-8 ovarian
[35] = test system: HCC-2998 colon
[36] = test system: CAKI-1 renal
[37] = test system: SF-539 CNS
[38] = test system: A549 NSCLC
[39] = test system: UO-31 renal
[40] = test system: OVCAR-3 ovarian
[41] = test system: DMS 273 small cell lung
[42] = test system: NCI-H522 lung
[43] = test system: HOP-62 NSCLC
[44] = test system: LXFL 529 NSCLC
[45] = test system: MALME-3M melanoma
[46] = test system: NCI-H23 lung
[47] = test system: UACC-257 melanoma
[48] = test system: SF-295 CNS
[49] = test system: 786-0 renal
[50] = test system: K-562 leukemia
[51] = test system: OVCAR-4 ovarian
[52] = test system: SN12C renal
[53] = test system: TK-10 renal
[54] = test system: NCI-H226 lung
[55] = test system: SR leukemia
[56] = test system: SK-MEL-5 melanoma

Measured: TGI

Fc1ccc2c(c1)cc1ccc3cccc4ccc2c1c34
> 100 µM: [1] | [2] | [3] | [4] | [5] | [6] | [7] | [8] | [9] | [10] | [11] | [12] | [13] | [14] | [15] | [16] | [17] | [18] | [19] | [20] | [21] | [22] | [23] | [24] | [25] | [26] | [27] | [28] | [29] | [30] | [31] | [32] | [33] | [34] | [35] | [36] | [37] | [38] | [39] | [40] | [41] | [42] | [43] | [44] | [45] | [46] | [47] | [48] | [49] | [50] | [51] | [52] | [53] | [54] | [55] | [56]
